Results: patent US9115340B2, “Microfluidic continuous flow device” (AGENCY FOR SCIENCE TECHNOLOGY & RESEARCH, priority 2008, dated 2015)

Legend:
primary rat hepatocytes [1] = assay: Albumin secretion of primary rat hepatocytes cultured in the microfluidic channel (rat albumin ELISA); type: cell-based
From the text: 200 pg/ml of TGF-β1 was supplemented into cultivation medium (▪). In another set of experiment, TGF-β1 was pre-loaded into gelatin microspheres and was then controlled released to the hepatocytes at a concentration of 217.5 pg/ml ( ?; control release). In the control experiment, there is no TGF-β1 supplemented in cultivation medium (□).
Albumin production was quantified with a rat albumin ELISA quantification kit (Bethyl Laboratories Inc, USA) in the collected cultivation medium everyday. In the presence of TGF-β1, the level of albumin secretion is enhanced. From day 5 onwards, when TGF-β1 is controlled released to the hepatocytes, the level of albumin secretion can be well-sustained.

primary rat hepatocytes [2] = assay: UGT activity: 4-MUG production of primary rat hepatocytes in the microfluidic channel (CE-LIF); type: cell-based; details: from day 3 onwards; TGF-β1 controlled released from gelatin microspheres at 217.5 pg/ml; compared to medium-supplemented and control groups
Procedure: The enzyme has the ability to metabolize the substrate 4-methylumbelliferone (MU) into 4-methylumbelliferone-glucuronide (MUG). Thus, the enzyme activity is indicated by the amount of 4-MUG produced by the cells.
Capillary electrophoresis (CE) with fluorimetric detection was used for the simultaneous detection of 4-MU and 4-MUG. Separation is carried out on an untreated fused silica capillary with fluorimetric detection using an excitation wavelength of 320 nm with a 375 nm cut off emission filter. […]
Similar to the UDP-glucuronosyltransferase (UGT) assay described above, UDP-glucuronosyltransferase (UGT) activity of hepatocytes cultured in the compartment of a channel of a microfluidic continuous flow device was determined by infusing 100 μM of 4-methylumbelliferone (4-MU) (Sigma, Singapore) for 4 h at 200 μl/h into the channel. The perfusate (800 μl) was collected and the metabolic product, 4-methylumbelliferone-glucuronide (4-MUG), was analyzed using capillary electrophoresis with laser induced fluorescence (CE-LIF) (Toh, Y. C. et al., 2008, Analyst, vol. 132, no. 3, p. 326) detection (Prince Technologies B.V., Netherlands) at an excitation wavelength of 325 nm.

In the case of “TGF-β1: growth factor supplemented into cultivation medium or pre-loaded into gelatin microspheres and controlled released to hepatocytes”, the albumin secretion (primary rat hepatocytes [1]; from day 5 onwards, 200 pg/ml TGF-β1 supplemented into cultivation medium) is reported as “decreases”, the “level of albumin secretion” value (primary rat hepatocytes [1]; from day 5 onwards, TGF-β1 controlled released from gelatin microspheres at 217.5 pg/ml) is reported as “well-sustained” and the “level of albumin secretion” value (primary rat hepatocytes [1]; in the presence of TGF-β1 (200 pg/ml in medium or 217.5 pg/ml controlled release) versus no TGF-β1) is reported as “enhanced”. The “level of 4-MUG production” value (primary rat hepatocytes [2]) was “greatly enhanced”.
